{"source": "patent US20210163453A1", "about": "“DERIVATIVES OF PAPAVERINE THAT ARE EFFECTIVE HYPOXIC TUMOR RADIOSENSITIZERS” (Ohio State Innovation Foundation, priority 2018, published 2021)", "key": {"PDE10A": {"target": "T1, PDE10A (Homo sapiens, UniProt Q9Y233)", "T1 construct": "purchased BPS Bioscience", "T1 sequence (Q9Y233 267-1055)": "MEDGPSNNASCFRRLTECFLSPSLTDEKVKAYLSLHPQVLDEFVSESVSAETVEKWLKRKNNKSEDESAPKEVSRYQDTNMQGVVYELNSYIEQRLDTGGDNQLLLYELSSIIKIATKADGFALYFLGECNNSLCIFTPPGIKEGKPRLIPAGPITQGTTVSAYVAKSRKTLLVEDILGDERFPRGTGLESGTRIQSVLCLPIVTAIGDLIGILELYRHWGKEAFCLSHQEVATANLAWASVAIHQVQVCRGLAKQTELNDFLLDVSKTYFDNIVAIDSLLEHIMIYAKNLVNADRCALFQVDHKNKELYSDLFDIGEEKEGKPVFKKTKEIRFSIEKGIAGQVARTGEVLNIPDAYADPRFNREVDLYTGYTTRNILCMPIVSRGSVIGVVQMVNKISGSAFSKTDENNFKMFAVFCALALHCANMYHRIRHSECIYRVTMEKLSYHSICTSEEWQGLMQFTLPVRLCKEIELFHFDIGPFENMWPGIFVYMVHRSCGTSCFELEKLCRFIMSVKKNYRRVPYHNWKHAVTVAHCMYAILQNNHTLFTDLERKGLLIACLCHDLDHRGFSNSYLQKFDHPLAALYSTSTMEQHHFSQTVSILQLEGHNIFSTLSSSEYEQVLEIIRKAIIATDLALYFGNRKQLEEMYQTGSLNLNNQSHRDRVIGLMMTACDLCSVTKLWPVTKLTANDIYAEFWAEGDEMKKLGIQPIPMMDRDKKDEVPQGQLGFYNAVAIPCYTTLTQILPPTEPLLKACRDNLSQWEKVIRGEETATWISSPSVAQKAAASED", "experiment": "PDE10A enzymatic assay (PDE10A activity assay kit, BPS Bioscience)", "type": "biochemical", "description": "FIGS. 7A-7D show OCR and cellular toxicity data. […] Bars represent mean OCR and PDE10 inhibitory activities from at least 5 (OCR) or 3 (PDE) replicates. All experiments were repeated at least twice. […] Values are mean+−SEM. […]\nThe structure activity relationship of PPV relative to two assays was assessed: inhibition of cellular OCR by Seahorse, and inhibition of PDE10A by purified enzyme activity in multiwell plate (PDE10A activity assay kit, BPS Bioscience). […] These lead compounds were synthesized from commercial precursors and purified on silica gel column."}, "MP2 tumors": {"system": "MP2 tumors", "experiment": "ODD-luciferase in vivo oxygen reporter (bioluminescence imaging)", "parameters": "species or system mice", "conditions": "orthotopic MP2 CMVluc tumors", "description": "FIGS. 14A-14E summarize results obtained using ODD-luciferase as an in vivo oxygen reporter. […] (n=3-4, P<0.05).\nUse of ODD-luciferase as an in vivo oxygen reporter. We have fused the oxygen dependent degradation domain (ODD) of the HIF1a protein to the luciferase reporter protein. This fusion protein is expressed in tumor cells and is stable and reports well in hypoxia, but is destroyed by cellular machinery when cells are well oxygenated (FIG. 14A). These cells were used to grow tumors in immune-deficient mice and the animals were exposed either 95% oxygen/5% CO2 (carbogen) or medical air and the tumor bioluminescence imaged by IVIS 30 minutes post injection. Increasing oxygen breathing decreases reporter signal (FIG. 14B). These animals were then treated with either papaverine or vehicle (FIG. 14C) or SMV32 or vehicle (FIG. 14E)."}, "cell lines of Table 1": {"system": "cell lines of Table 1", "experiment": "Cell lines tested for sensitivity to PPV (mitochondrial function)", "type": "cell-based, Human, Murine, Canine", "conditions": "29 cell lines: breast, colon, leukemia, lung, normal, osteosarcoma, pancreas, pharynx, tongue", "description": "(§1) Seahorse analysis of the OCR. Oxygen consumption rate (OCR) was measured using Seahorse XF96 Flux Analyzer (Agilent Technologies). The cells were seeded to attach overnight, wells were washed with pre-warmed XF Calibrant (Agilent Technologies) and the replaced with unbuffered Assay Medium (pH 7.4, 5 mM glucose, 1 mM L-glutamine). The plates were incubated at 37° C. in a CO2-free incubator for 2 hours prior to assay. For succinate rescue assay, cells were permeabilized using XF Plasma Membrane Permeabilizer Reagent (XF PMP, Agilent Technologies) according to the manufacturer's instructions. The OCR rate was measured in 1× Mitochondrial Assay Solution (MAS) (70 mM sucrose, 220 mM mannitol, 10 mM KH2PO4, 5 mM MgCl2, 2 mM Hepes, 0.6% (w/v) fatty acid-free BSA and 1 mM EGTA; pH 7.4). After baseline oxygenation was established, 1 μM rotenone or 10 μM PPV was injected at time A, followed by 5 mM succinate at time B. Error bars represent standard deviation. For the washout experiment, EO771 cells were seeded overnight, then treated with 10 μM PPV or 1 μM rotenone 3 hours prior to OCR measurement. Media was replaced 1 and 2 hours before measurement and OCR reported.\nPPV was tested in vitro to determine if it could decrease mitochondrial function in all cells tested in minutes at low micromolar concentrations (Table 1, FIG. 1A)."}, "[1]": {"system": "NDUFV1 KO NDI1 flank tumors", "experiment": "Pimonidazole staining, NDUFV1 KO NDI1 flank tumors", "type": "in vivo, mice", "conditions": "2 mg/kg PPV", "description": "FIGS. 5A-5E show papaverine radiosensitizes through complex I inhibition. […] Values represent mean viable cells+−SD. […] Values are mean+−SD. […] P value was calculated with two-tailed two-sample t test. […] Curves represent mean tumor volumes+−SEM.\nPimonidazole staining. Pimonidazole adducts were visualized in hypoxic regions within histological sections of tumor tissues (Kizaka-Kondoh, S. et al. Cancer science 100, 1366-1373 (2009)). Immune-deficient mice bearing EO771 and A549 flank xenografts were treated with 2 mg/kg PPV or saline and 60 mg/kg pimonidazole administered I.P. at 30 minutes and tumors harvested at 90 minutes. Tumor sections were stained with anti-pimonidazole rabbit antisera and anti-rabbit Alexa Fluor 488 secondary antibody. The hypoxic fraction of each tumor was quantified by thresholding signal at 50% of the maximum signal on control sections. Area covered by pimonidazole-positive cells was evaluated from 20 images per animal and averaged. Error bars represent the standard deviation."}, "A549 cells": {"system": "A549 cells", "experiment": "In vitro radiation survival (colony formation) of A549 cells", "type": "cell-based, Human", "description": "FIGS. 4A-4G show tumor growth before and after radiosensitization with PPV. FIG. 4A-4B show in vitro radiation survival assessment of A549 cell line treated with […] PPV in normoxia (FIG. 4A) and anoxia (FIG. 4B). Normoxic cells were irradiated in triplicates on a cell culture dish, anoxic cells were irradiated in high density suspension after sealing with mineral oil 45 minutes before radiation. Values represent averaged colony counts+−standard deviation. FIG. 4C show quantification of tumor growth delay in orthotopic EO771 tumors gown in C57B16 mice receiving either 5 Gy XRT (magenta) or 2 mg/kg PPV 35 minutes prior to 5 Gy XRT (blue) (n=3-4). Values are mean tumor volumes+−SEM. […] Values are mean tumor volumes+−SEM. FIG. 4E-4F show tumor growth delay. When tumors reached 4-fold volume increase, groups receiving no treatment or PPV only (FIG. 4E); and XRT only or PPV followed by XRT (FIG. 4F), tumor weights were compared. Values are mean tumor weights+−SEM (n=8). P values were calculated with two-tailed two-sample t test. FIG. 4G are related to FIG. 4E-4F tumor growth delay.\nA549 cells in suspension were treated with 5 μM PPV for one hour prior to radiation and plating in fresh media for colony formation post radiation. (N=2 experiments performed in triplicate). […]"}, "[2]": {"system": "oxygen consumption (mitochondrial function)", "experiment": "Seahorse XF analysis of oxygen consumption in vitro, cell line not stated", "type": "cell-based", "description": "as §1"}}, "note": "“Also recorded” adds a separate entry of the source.", "data": [{"smiles": "COc1cc2ccnc(Cc3cccc4ccccc34)c2cc1OC", "note": "[SMV-32]", "values": [{"measurement": "IC20", "setting": "PDE10A; PDE10A2 enzymatic assay, n=3 replicates, read-out: PDE IC20 (PDE10A IC20)", "result": 12, "unit": "µM"}, {"measurement": "Inhibitory activity PDE10A % of PPV", "setting": "PDE10A; PDE10A inhibition at 1 μM, normalized to PPV", "result": "38.66 % of PPV"}, {"measurement": "PDE10 activity compared to PPV", "setting": "PDE10A; compared to PPV", "result": 40, "unit": "%"}]}, {"smiles": "COc1ccc(Cc2nccc3cc(OC)c(OC)cc23)cc1OC", "note": "[PPV, papaverine]", "values": [{"measurement": "CMV luciferase (non-hypoxia responsive) control signal", "setting": "MP2 tumors", "result": "did not show any change"}, {"measurement": "sensitivity to PPV", "setting": "cell lines of Table 1", "result": "List of cell lines positively tested for sensitivity to PPV"}, {"measurement": "hypoxic fraction by pimonidazole", "setting": "[1]", "result": "no decrease of the hypoxic fraction"}, {"measurement": "colony survival after radiation", "setting": "A549 cells; 5 μM papaverine for one hour prior to radiation", "result": "did not have any effect on colony survival; also recorded: not an inherent radiosensitizer"}, {"measurement": "surviving fraction of irradiated cells", "setting": "A549 cells; 10 μM PPV, normoxia and anoxia", "result": "did not change the surviving fraction"}, {"measurement": "inhibition of oxygen consumption / mitochondrial function in vitro", "setting": "[2]", "result": "effective at inhibiting oxygen consumption"}]}]}
